Measurements reported in the PolyMetriX glass transition set.
± gives the standard deviation of the reports.

SMILES	glass transition temperature [°C]
*c1ccc(Cc2ccc(NC(=O)c3cccc(-c4nc5cc(-c6ccc7[nH]c(-c8cccc(C(=O)Nc9ccc(Cc%10ccc(-n%11c(=O)c%12cc%13c(=O)n(*)c(=O)c%13cc%12c%11=O)cc%10)cc9)c8)nc7c6)ccc5[nH]4)c3)cc2)cc1 (repeat unit)	277.00
*Oc1ccc(C2(c3ccc(OC(=O)c4ccc(Oc5ccc(C6(c7ccc(Oc8ccc(C(*)=O)cc8)cc7)CCC(C(C)(C)C)CC6)cc5)cc4)cc3)C3CC4CC(C3)CC2C4)cc1 (repeat unit)	197.00
*c1ccc2c(c1)C(=O)N(c1cccc(C(F)(F)C(F)(F)C(F)(F)c3cccc(N4C(=O)c5ccc(C(F)(F)C(F)(F)C(F)(F)C(F)(F)C(F)(F)C(F)(F)C(*)(F)F)cc5C4=O)c3)c1)C2=O (repeat unit)	133.50
*CCC(C)(C)CC(C)COC(=O)CCCCC(=O)O* (repeat unit)	-70.00
*c1ccc(Cc2ccc(-n3nc(-c4ccccc4)cc3-c3cccc(-c4cc(-c5ccccc5)nn4*)c3)cc2)cc1 (repeat unit)	225.00
*CC(*)(C)C(=O)OCCCCC (repeat unit)	10.00
*OC(=O)C(NC(=O)CCCCCCCCC(=O)NC(C(=O)OC1COC2C(*)COC12)C(C)CC)C(C)CC (repeat unit)	91.00
*c1ccc2c(c1)C(=O)N(c1ccc(C(=O)Nc3ccc(Oc4ccc(NC(=O)c5ccc(N6C(=O)c7ccc(C(*)(C(F)(F)F)C(F)(F)F)cc7C6=O)cc5)cc4)cc3)cc1)C2=O (repeat unit)	322.00
*c1ccc(C2(c3ccc(N4C(=O)c5ccc(Oc6ccc7c(c6)C(=O)N(*)C7=O)cc5C4=O)cc3)c3ccccc3-c3ccccc32)cc1 (repeat unit)	373.00
*Oc1ccc(S(=O)(=O)c2ccc(Oc3ccc(C4(c5ccc(*)cc5)CCCCC4)cc3)cc2)cc1 (repeat unit)	226.00
*CCCCCOCO* (repeat unit)	-80.00
*=Nc1ccc(/N=C(/C=C/C(=*)c2ccccc2)c2ccccc2)cc1 (repeat unit)	157.00
*CC(*)C(=O)N1CCOCC1 (repeat unit)	150.00
*/C(C)=C(/*)[Si](C)(C)CCCCCC (repeat unit)	200.00
*CCN(CCOC(=O)c1ccc(C(=O)O*)c(OCCC)c1)c1ccc(/N=N/c2ccc(-c3nc4cc([N+](=O)[O-])ccc4[nH]3)cc2)cc1 (repeat unit)	152.00
*CCOCCOC(=O)C(CCCCCCCCC)C(=O)O* (repeat unit)	-59.00
*CCc1ccc(*)c(C)c1 (repeat unit) [Poly(methyl-p-xylylene) ]	55 ± 1.9
*CC(C)(/C=C(/*)C)C(=O)OC (repeat unit)	24.00
*c1ccc(Sc2ccc(-n3c(=O)c4cc5c(=O)n(*)c(=O)c5cc4c3=O)cc2)cc1 (repeat unit)	400.00
*CCCCCCOC(=O)CCCCCCCCC(=O)O* (repeat unit)	-38.00
*CCCCCCCCCCOc1c(OC)cc(/C=C2\CCC/C(=C\c3cc(OC)c(O*)c(OC)c3)C2=O)cc1OC (repeat unit)	49.00
*c1ccc2c(c1)C(=O)N(c1ccc(Cc3ccc(N4C(=O)c5ccc(C(*)(C(F)(F)F)C(F)(F)F)cc5C4=O)cc3)cc1)C2=O (repeat unit)	297.00

SMILES	glass transition temperature [°C]
*CC(CCCCCCOc1ccc(/N=N/c2ccc(Br)cc2)cc1)COC(=O)CCCCC(=O)O* (repeat unit)	24.00
*c1ccc([Si](c2ccccc2)(c2ccccc2)c2ccc(-c3nnc(-c4cncc(-c5nnc(*)o5)c4)o3)cc2)cc1 (repeat unit)	272.00
*c1cccc(N2C(=O)c3cccc(Oc4ccc(-c5ccc(Oc6cccc7c6C(=O)N(*)C7=O)cc5)cc4)c3C2=O)c1 (repeat unit)	275.00
*Nc1cccc(NC(=O)CCCCCCC(*)=O)c1 (repeat unit)	115.50
*/C=C/C1CC(*)C(C(=O)OC)C1C(=O)OC (repeat unit)	77.30
*CC#CC#CCOc1ccc(C(=O)OCCN(CCOC(=O)c2ccc(O*)cc2)c2ccc(/N=N/c3ccc(/N=N/c4cc(C)c(C#N)c(C)c4)cc3)cc2)cc1 (repeat unit)	120.00
*c1cccc(P(=O)(c2cccc(-n3c(=O)c4cc5c(=O)n(*)c(=O)c5c(-c5ccc(C(F)(F)F)cc5)c4c3=O)c2)c2cc(C(F)(F)F)cc(C(F)(F)F)c2)c1 (repeat unit)	292.00
*CC(O)C(O)CN(*)c1ccc(N(C)C)cc1 (repeat unit)	72.00
*O[Si](*)(C)CCCC(=O)OC (repeat unit)	-72.00
*OC(=O)c1cccc(OCCCCCCOc2cccc(C(=O)OC3COC4C(*)COC34)c2)c1 (repeat unit)	43.50
*CCC(C)C(C)CCNC(=O)c1cccc(C(=O)N*)c1 (repeat unit)	125.00
*CCCCNC(=O)CC(=O)N* (repeat unit)	73.00
*CC(SS*)c1ccccc1 (repeat unit)	4.80
*c1ccc2c(c1)C(=O)N(c1ccc(Oc3cccc(Oc4ccc(N5C(=O)c6ccc(C(*)(C(F)(F)F)C(F)(F)F)cc6C5=O)cc4)c3)cc1)C2=O (repeat unit)	241.50 ± 18
*c1ccc(Oc2cccc(Oc3ccc(N4C(=O)c5ccc(Oc6cc7ccccc7cc6Oc6ccc7c(c6)C(=O)N(*)C7=O)cc5C4=O)cc3)c2)cc1 (repeat unit)	208.00
*c1ccc(Oc2ccc(C(=O)c3cccc(C(=O)c4ccc(Oc5ccc(-n6c(=O)c7cc8c(=O)n(*)c(=O)c8cc7c6=O)cc5C(F)(F)F)cc4)n3)cc2)c(C(F)(F)F)c1 (repeat unit)	227.10
*C/C=C/C(CC)S(*)(=O)=O (repeat unit)	70.10
*c1ccc(NC(=O)Nc2ccc(NC(=O)Nc3ccc(-c4nc(C#N)c(C#N)nc4*)cc3)cc2)cc1 (repeat unit)	248.70
*c1ccc(Oc2ccc(C3(c4ccc(Oc5ccc(N6C(=O)CC(=O)N(*)C6=S)cc5)cc4)c4ccccc4-c4ccccc43)cc2)cc1 (repeat unit)	175.00
*CCCCCCNC(=O)c1cc(NC(=O)c2ccc(NC(=O)C(CC(C)C)N3C(=O)c4ccccc4C3=O)cc2)cc(C(=O)N*)c1 (repeat unit)	200.00
*CCCC1(CCCNC(=O)CCCCC(=O)N*)c2ccccc2-c2ccccc21 (repeat unit)	120.00

The next lines start with the values.

glass transition temperature [°C]	SMILES
124.00	*Oc1ccc(C(C)(C)c2ccc(OC(*)=O)c(C)c2)cc1C (repeat unit)
66.00	*Oc1ccc(CC(NC(=O)CCc2ccc(OC(=O)CCCC(*)=O)cc2)C(=O)OCc2ccccc2)cc1 (repeat unit)
40.00	*Oc1ccccc1C(=O)OC(=O)c1ccccc1OC(=O)CCCCCC(*)=O (repeat unit)
130.00	*CC(COc1ccc(S(=O)(=O)c2ccc(O*)cc2)cc1)OC(C)=O (repeat unit)
195.00	*Oc1ccc(Oc2ccc(C(=O)c3cccc(C(=O)c4ccc(*)cc4)c3)cc2)cc1S(=O)(=O)O (repeat unit)
55.00	*Oc1ccccc1C(=O)OC(=O)c1ccccc1OC(=O)CCCCC(*)=O (repeat unit)
112.00	*/C=C/c1ccc(OC(=O)c2ccc(C(=O)Oc3cccc4ccc(*)nc34)cc2)cc1 (repeat unit)
175.00	*Oc1ccc(C(C)(C)c2ccc(Oc3ccc(C(=O)c4ccc(*)c(S(=O)(=O)O)c4)cc3S(=O)(=O)O)cc2)cc1 (repeat unit)
89.00	*CCCCCCCCCN1C(=O)c2ccc(Oc3ccc4c(c3)C(=O)N(*)C4=O)cc2C1=O (repeat unit)
54.00	*CC(*)(C)C(=O)OCCCCCCCCCCOc1ccc(/N=N/c2ccc(Cl)cc2)cc1 (repeat unit)
211.50	*CC(*)(C)C(=O)OCCCc1ccc(/N=N/c2ccc(OC(F)(F)F)cc2)cc1 (repeat unit)
199.00	*CC(*)(C)c1ccc(C(O)C(F)(F)F)cc1 (repeat unit)
107.20	*CC(COc1ccc(C(C)(C)c2ccc(O*)cc2)cc1)OC(=O)/C=C/c1ccco1 (repeat unit)
336.00	*c1ccc(Cc2ccc(N3C(=O)c4ccc(S(=O)(=O)c5ccc6c(c5)C(=O)N(*)C6=O)cc4C3=O)c(C(C)(C)C)c2)cc1C(C)(C)C (repeat unit)
30.00	*CC(O)COC(=O)CCCCCCCCC(=O)OCC(O)COc1ccc(C(C)(C)c2ccc(O*)cc2)cc1 (repeat unit)
300.00	*Nc1cccc(NC(=O)c2cc(NC(=O)c3ccccc3)cc(C(*)=O)c2)c1 (repeat unit)
79.00	*CC(*)(C)C(=O)OCCCCCCOc1ccc(/N=N/c2ccc(OCCCC)cc2)cc1 (repeat unit)
234.00	*NNC(=O)c1ccc(C(*)=O)cc1OCCCCC (repeat unit)
164.00	*CCCCCCNC(=O)c1ccc(C(C)(CC)c2ccc(C(=O)N*)cc2)cc1 (repeat unit)
69.00	*CC(*)(C)C(=O)OCCCCOc1ccc(OC(=O)c2ccc(OC)c(Br)c2)cc1 (repeat unit)
264.00	*c1ccc(-c2ccc(C(*)(C(F)(F)F)C(F)(F)F)cc2)cc1 (repeat unit)
150.50	*Oc1ccc(Oc2ccc(Oc3ccc(C(=O)c4ccc(*)cc4)cc3)cc2)cc1 (repeat unit)
353.00	*c1cc(C)c(-c2c(C)cc(-n3c(=O)c4cc5c(=O)n(*)c(=O)c5cc4c3=O)cc2C)c(C)c1 (repeat unit)
112.00	*CCCCCCNC(=O)c1ccc(C(=O)N*)c(Oc2ccc(-c3ccccc3)cc2)c1 (repeat unit)
